Measured values as given in patent US11096987B2, “Mutant peptides and methods of treating subjects using the same” (BIOINCEPT, LLC, priority 2015, dated 2021).
Where two headings read alike, the source gives them in different places.

Assays:
CD19 (B cell) monocytes = assay: FITC-PIF assay, binding to CD19 monocytes
[1] = tested on: CD11b (macrophage) monocytes; assay: FITC-PIF assay, binding to CD11b monocytes; settings: for CD11b %: FITC-PIF binding
[2] = target: insulin degrading enzyme (IDE) (Homo sapiens, UniProt P14735); assay: Fluorescent based thermal shift assay; assay type: binding; settings: ligands 10 uM, receptor 1 uM
Procedure: Concentrations of the ligands 10 uM and 1 uM of the receptor, buffer consisting of 10 mM HEPES-HCL, 150 mM […], and protein folding sensitive dye SyO 1:1000.
(§1) (FIG. 2). […] (FIG. 3). […] (FIG. 4). […] Thus dependent on the target Kv1.3 or IDE the mutated PIF-1 can have a target-specific effect which can also translate to diverse biological activity.

Jurkat T-cells = assay: K+ flux inhibition in Jurkat T-cells; assay type: cell-based; settings: compared with control
From the text: as §1

let-7 = let-7 microRNA levels in microglia and neural cell lines; assay type: cell-based
From the text: as §1
This direct effect on target cells was confirmed by targeting microglia and neuron cell line (Neu) in vitro (FIGS. 5C, D). […] Phosphorylated CREB in turn facilitates expression of (Gap43, Bdnf and Bcl2) (FIG. 5F) that play important role regulating neuronal growth, survival, which is dependent on TLR4 signaling (FIG. 5G). PKA/PKC was reported to impart TBI (Lucke-Wold, Logsdon et al. 2014; Zohar, Lavy et al. 2011; Titus 2013). […] For currently used neuroprotective drugs ability to reach the brain in both intact and damaged settings is difficult. Therefore frequently drugs in order to pass the BBB they have to be very small, or have to be added to agents that would favor passage.

## AVRIKPGSANKPSDD [SEQ ID NO: 10]
CD19 (B cell) monocytes
  CD19 %: 5.90%
  binding affinity to CD19 monocytes compared to natural PIF: higher binding affinity
[1]
  binding affinity to CD11b monocytes compared to natural PIF: higher binding affinity
  CD11b %: 33.54%

## MVRGKPGSANKPSDD [SEQ ID NO: 8, PIF mutant]
[2]; listed as PIF(mutant-3)
  Tm / thermal shift compared to PIF(wt): increased Tm
[2]; listed as mut-3
  Tm / thermal shift compared to PIF(wt): activity was decreased
Jurkat T-cells
  effect on K+ flux: no effect
CD19 (B cell) monocytes
  binding affinity to CD19 monocytes compared to natural PIF: higher binding affinity
CD19 (B cell) monocytes; FITC-PIF binding
  CD19 %: 5.60%
[1]
  binding affinity to CD11b monocytes compared to natural PIF: higher binding affinity
  CD11b %: 35.48%
let-7
  effect on let-7 microRNA: lack of effect

## MVRIKEGSANKPSDD [SEQ ID NO: 7, PIF mutant]
[2]; listed as PIF(mutant-1)
  Tm / thermal shift compared to PIF(wt): decreased Tm
[2]; listed as mut-1
  Tm / thermal shift compared to PIF(wt): reduced thermal shift
Jurkat T-cells
  effect on K+ flux: no effect
